25 compounds from patent US6579881B2 (Eisai Co., Ltd., priority 1997, dated 2003) can be followed below.

Broadly, the melting point is the temperature, or range, at which the solid turns liquid.

In one data set the target is T1, serotonin 1A receptor (Rattus norvegicus, UniProt P19327).
T1 construct: To the receptor fraction of the hippocampus were added a test compound and 0.5 nM of [^3H]; 8-hydroxy-dipropylaminotetralin; from tissue; host or cells: SD rat hippocampus, membrane (receptor) fraction
T1 sequence (P19327 1-422): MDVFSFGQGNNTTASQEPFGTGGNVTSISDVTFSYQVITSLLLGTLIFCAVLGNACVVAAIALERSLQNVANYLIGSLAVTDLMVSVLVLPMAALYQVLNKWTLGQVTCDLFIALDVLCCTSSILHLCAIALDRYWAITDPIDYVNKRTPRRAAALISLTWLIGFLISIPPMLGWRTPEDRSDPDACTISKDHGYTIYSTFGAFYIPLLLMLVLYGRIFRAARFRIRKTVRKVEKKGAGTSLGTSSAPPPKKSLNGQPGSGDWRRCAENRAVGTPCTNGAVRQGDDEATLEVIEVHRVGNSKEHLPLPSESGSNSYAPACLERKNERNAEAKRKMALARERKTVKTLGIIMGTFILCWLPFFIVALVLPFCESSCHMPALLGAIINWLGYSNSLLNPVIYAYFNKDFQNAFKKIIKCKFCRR
As to the kind of experiment: Binding test on [3H] 8-hydroxy-dipropylaminotetralin (serotonin 1A receptor). The conditions noted are these: [3H] 8-OH-DPAT 0.5 nM, receptor fraction of rat hippocampus; read-out: 5HT1a.

The next data set deals with serotonin 2 receptor (Rattus norvegicus, UniProt P14842). As to the kind of experiment: Binding test on [3H] ketanserin (serotonin 2 receptor). The conditions noted are these: [3H] ketanserin 0.3 nM, receptor fraction of rat cerebral cortex; read-out: 5HT2.
The target in the next data set is α1 adrenalin receptor. Description: Binding test on [3H] prazosin (α1 adrenalin receptor). Set-up: species or system rat. The conditions noted are these: [3H] prazosin about 0.2 nM, receptor fraction of rat cerebral cortex.

serotonin 2 receptor, sequence (P14842 whole entry): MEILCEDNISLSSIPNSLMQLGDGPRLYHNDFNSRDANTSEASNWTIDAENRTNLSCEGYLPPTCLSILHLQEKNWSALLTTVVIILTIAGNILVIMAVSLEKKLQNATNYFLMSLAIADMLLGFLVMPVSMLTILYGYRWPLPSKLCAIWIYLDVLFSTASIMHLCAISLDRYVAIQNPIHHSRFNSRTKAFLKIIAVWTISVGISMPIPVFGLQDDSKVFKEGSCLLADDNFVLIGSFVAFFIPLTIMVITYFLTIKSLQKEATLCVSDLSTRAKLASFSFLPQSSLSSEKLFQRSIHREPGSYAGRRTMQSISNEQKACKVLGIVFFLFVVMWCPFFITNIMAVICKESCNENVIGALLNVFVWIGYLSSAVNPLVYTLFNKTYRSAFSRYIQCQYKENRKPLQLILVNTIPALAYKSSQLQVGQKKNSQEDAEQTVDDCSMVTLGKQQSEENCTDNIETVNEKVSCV
Procedure for α1 adrenalin receptor: Methysergide maleate was dissolved in distilled water before using.
Use was made of SD rats aged 6 to 8 weeks.
The rats were sacrificed by dcapitation to extirpate the cerebra.
The hippocampus was mixed with 50 times (on the wet weight basis) as much a 0.32 M sucrose solution while the cortex was mixed with 10 times as much the same solution. Each mixture was homogenized by using a Teflon glass homogenizer and centrifuged at 1,000×g for 10 min. The supernatant thus obtained was further centrifuged at 20,000×g for 20 min. The obtained precipitate was re-suspended in 50 times (based on the intial wet weight; in the case of the hippocampus) or 10 times (in the case of the cortex) as much a 50 mM Tris hydrochloride (pH 7.4) and incubated at room temperature for 30 min. After centrifuging at 20,000×g for 20 min, the obtained precipitate was further suspended and centrifuged twice each in the same manner. The precipitate thus obtained was suspended in 100 times (based on the initial wet weight; in the case of the hippocampus) or 20 times (in the case of the cortex) as much a 50 mM Tris hydrochloride solution (pH 7.4) to thereby give a receptor fraction. This receptor fraction was stored at −80° C. until using.
(Binding Test on [^3H] Prazosin)
Next, it was filtered through a glass filter with the use of a cell harvester. After washing the glass filter with 50 mM Tris hydrochloride (pH 7.4), the radioactivity of the receptor was measured with a liquid scintillation counter. The binding detected in the presence of 10 μM of phentolamine was referred to as the nonspecific binding.
Subsequently, the abilities of typical examples of the compounds of the present invention to bind to the α1 adrenalin receptor were evaluated by the test method described above.

In turn, `CCC(=O)NCc1ccc2ccn(C3CCN(CCc4ccccc4F)CC3)c2c1` [Example 380, 1-[1-(2-fluorophenethyl)piperidin-4-yl]-6-propionylaminomethylindole] registered a melting point of 118 to 119 °C. For the same compound, at serotonin 1A receptor, the Ki stood at 2.87 nM. Also, the Ki at serotonin 2 receptor is 1.56 nM. This compound displayed a Ki at α1 adrenalin receptor of 116 nM.
For `CS(=O)(=O)Oc1ccc2ccn(C3CCN(CCc4ccc(F)cc4)CC3)c2c1` [Example 336, 1-[1-(4-fluorophenethyl)piperidin-4-yl]-6-methanesulfonyloxyindole], the melting point lay within 213 to 215 °C. On serotonin 1A receptor, the Ki was less than 0.2 nM. Moreover, at serotonin 2 receptor, the Ki is greater than 20 nM. The compound further yielded a Ki at α1 adrenalin receptor of 53.7 nM.
Regarding `O=C(Cc1ccc2ccn(C3CCN(CCc4ccc(F)cc4)CC3)c2c1)NCC1OCCO1` [Example 347, 1-[1-(4-fluorophenethyl)piperidin-4-yl]-6-(1,3-dioxolan-2-ylmethyl)carbamoylmethylindole], the melting point lay within 173.8 to 174.6 °C. On serotonin 1A receptor, the Ki was 2.24 nM. Also, the Ki at serotonin 2 receptor was determined as 0.65 nM. Further, the Ki on α1 adrenalin receptor was found to be 44.3 nM.
Taken in the same sequence, the figures for `O=C(CCCl)NCc1ccc2ccn(C3CCN(CCc4ccc(F)cc4)CC3)c2c1` [Example 367, 1-[1-(4-fluorophenethyl)piperidin-4-yl]-6-(3-chloropropionylamino)methylindole] were 121 to 122 °C, 1.63 nM, 1.76 nM and 45.8 nM.
Taken in the same sequence, the figures for `CS(=O)(=O)c1ccc2ccn(C3CCN(CCc4ccc(F)cc4)CC3)c2c1` [Example 331, 1-[1-(4-fluorophenethyl)piperidin-4-yl]-6-methanesulfonylindole] were 133 to 135 °C, 0.11 nM, 8.28 nM and 77 nM.
As for `O=C(CCO)NCc1ccc2ccn(C3CCN(CCc4ccccc4F)CC3)c2c1` [Example 382, 1-[1-(2-fluorophenethyl)piperidin-4-yl]-6-(3-hydroxypropionylamino)methylindole], the melting point lay within 58 to 59 °C. In addition, the Ki on serotonin 1A receptor worked out at 7.59 nM. Moreover, the Ki on serotonin 2 receptor is 3.31 nM. In addition, the Ki at α1 adrenalin receptor came out at 163 nM.
The compound `CNC(=O)Cc1ccc2ccn(C3CCN(CCc4ccc(F)cc4)CC3)c2c1` [Example 316, 1-[1-(4-fluorophenethyl)piperidin-4-yl]-6-methylcarbamoylmethylindole] came in with a melting point of 149.4 to 150.5 °C. Moreover, on serotonin 1A receptor, the Ki amounted to 1.82 nM. The Ki on serotonin 2 receptor amounted to 1.26 nM. At α1 adrenalin receptor, this compound came in with a Ki of 63.7 nM.
The matching figures for `CNS(=O)(=O)Cc1ccc2ccn(C3CCN(CCc4ccc(F)cc4)CC3)c2c1` [Example 338, 1-[1-(4-fluorophenethyl)piperidin-4-yl]-6-(N-methylsulfamoylmethyl)indole]: 172 to 175 °C, 0.07 nM, greater than 20 nM and 21.3 nM.
`O=C(CO)NCc1ccc2ccn(C3CCN(CCc4ccc(F)cc4)CC3)c2c1` [Example 364, 1-[1-(4-fluorophenethyl)piperidin-4-yl]-6-hydroxyacetamidomethylindole] gave a melting point of 76 to 78 °C. Further, the Ki at serotonin 1A receptor was determined as 1.73 nM. Further, on serotonin 2 receptor, the Ki turned out to be 4.23 nM. The same compound had a Ki on α1 adrenalin receptor of 289 nM.
Take `CC(=O)NCc1ccc2ccn(C3CCN(CCc4ccc(Cl)cc4)CC3)c2c1` [Example 349, 1-[1-(4-chlorophenethyl)piperidin-4-yl]-6-acetamidomethylindole]: the melting point is 148 to 149 °C. For the same compound, the Ki at serotonin 1A receptor was 0.22 nM. Besides, the Ki at serotonin 2 receptor came out at 8.12 nM. At α1 adrenalin receptor, this compound showed a Ki of 88.5 nM.
Taken in the same sequence, the figures for `NC(=O)NCc1ccc2ccn(C3CCN(CCc4ccc(F)cc4)CC3)c2c1` [Example 393, 1-[1-(4-fluorophenethyl)piperidin-4-yl]-6-ureidomethylindole] were 171.9 to 172.8 °C, 0.85 nM, 2.54 nM and 37.8 nM.
The matching figures for `OCc1ccc2ccn(C3CCN(CCc4ccccc4F)CC3)c2c1` [Example 391, 1-[1-(2-fluorophenethyl)piperidin-4-yl]-6-hydroxymethylindole]: 116.8 to 117.5 °C, 1.72 nM, 6.83 nM and 116 nM.
The matching figures for `CCNC(=O)Cc1ccc2ccn(C3CCN(CCc4ccc(F)cc4)CC3)c2c1` [Example 294, 1-[1-(4-fluorophenethyl)piperidin-4-yl]-6-(ethylcarbamoylmethyl)indole]: 159.6 to 160.1 °C, 1.05 nM, 2.86 nM and 80.7 nM.
Take `O=C(Cc1ccc2ccn(C3CCN(CCc4ccc(F)cc4)CC3)c2c1)NCCF` [Example 310, 1-[1-(4-fluorophenethyl)piperidin-4-yl]-6-(2-fluoroethyl)carbamoylmethylindole]: the melting point lay within 163.3 to 163.8 °C. Further, the Ki at serotonin 1A receptor stood at 1.34 nM. For the same compound, the Ki on serotonin 2 receptor was determined as 2.29 nM. At α1 adrenalin receptor, this compound gave a Ki of 84.4 nM.
The matching figures for `O=C1CNC(=O)N1Cc1ccc2ccn(C3CCN(CCc4ccc(F)cc4)CC3)c2c1` [Example 353, 1-[1-(4-fluorophenethyl)piperidin-4-yl]-6-(2,4-imidazolidinedion-3-yl)methylindole]: 156 to 157 °C, 0.78 nM, 12.6 nM and 144 nM.
As to `CC(=O)Nc1ccc2ccn(C3CCN(CCc4ccc(F)cc4)CC3)c2c1` [Example 339, 1-[1-(4-fluorophenethyl)piperidin-4-yl]-6-acetamidoindole], the melting point was 195 to 196 °C. At serotonin 1A receptor, the Ki was less than 0.2 nM. Further, the Ki at serotonin 2 receptor was greater than 20 nM. The compound further displayed a Ki at α1 adrenalin receptor of 31.7 nM.
The compound `CN(C)C(=O)Cc1ccc2ccn(C3CCN(CCc4ccc(F)cc4)CC3)c2c1.O=C(O)C(=O)O` [Example 301, 1-[1-(4-fluorophenethyl)piperidin-4-yl]-6-dimethylcarbamoylmethylindole Oxalate] registered a melting point of 170.1 to 170.6 °C. Further, the Ki on serotonin 1A receptor was 0.8 nM. Also, the Ki on serotonin 2 receptor was found to be 21.9 nM. Also, the Ki at α1 adrenalin receptor was 66.9 nM.
The matching figures for `COCCNC(=O)Cc1ccc2ccn(C3CCN(CCc4ccc(F)cc4)CC3)c2c1` [Example 309, 1-[1-(4-fluorophenethyl)piperidin-4-yl]-6-(2-methoxyethyl)carbamoylmethylindole]: 113.2 to 114.4 °C, 3.85 nM, 1.02 nM and 123 nM.
In turn, `O=C(Cc1ccc2ccn(C3CCN(CCc4ccc(F)cc4)CC3)c2c1)NC1CC1` [Example 295, 1-[1-(4-fluorophenethyl)piperidin-4-yl]-6-[N-(cyclopropylcarbamoyl)methyl]indole] returned a melting point of 156.4 to 156.8 °C. The Ki at serotonin 1A receptor stood at 0.85 nM. The Ki at serotonin 2 receptor amounted to 3.64 nM. The same compound displayed a Ki at α1 adrenalin receptor of 195 nM.
With `CC(=O)NCc1ccc2ccn(C3CCN(CCCCc4ccc(F)cc4)CC3)c2c1` [Example 356, 1-{1-[4-(4-fluorophenyl)butyl]-piperidin-4-yl}-6-acetamidomethylindole], the melting point was 59 to 60 °C. The Ki at serotonin 1A receptor stood at 1.52 nM. The Ki at serotonin 2 receptor was greater than 20 nM.
In turn, `OCCCc1ccc2ccn(C3CCN(CCc4ccc(F)cc4)CC3)c2c1` [Example 321, 1-[1-(4-fluorophenethyl)piperidin-4-yl]-6-(3-hydroxypropyl)indole] showed a melting point of 131 to 133 °C. On serotonin 1A receptor, the Ki stood at 0.14 nM. The Ki at serotonin 2 receptor was greater than 20 nM. The Ki on α1 adrenalin receptor stood at 203 nM.
For `COC(=O)NCc1ccc2ccn(C3CCN(CCc4ccc(F)cc4)CC3)c2c1` [Example 384, 1-[1-(4-fluorophenethyl)piperidin-4-yl]-6-methoxycarbonylaminomethylindole], the melting point was in the range of 117 to 118 °C. Moreover, at serotonin 1A receptor, the Ki stood at 0.13 nM. In addition, the Ki on serotonin 2 receptor was determined as 0.25 nM.
Turning to `O=C(CCl)NCc1ccc2ccn(C3CCN(CCc4ccc(F)cc4)CC3)c2c1` [Example 373, 1-[1-(4-fluorophenethyl)piperidin-4-yl]-6-chloroacetamidomethylindole], the melting point lay within 143 to 144 °C. The Ki at serotonin 1A receptor turned out to be 0.24 nM. On serotonin 2 receptor, the Ki worked out at 1.77 nM.
Consider `NC(=O)c1ccc2ccn(C3CCN(CCc4ccc(F)cc4)CC3)c2c1` [Example 337, 1-[1-(4-fluorophenethyl)piperidin-4-yl]-6-carbamoylindole], for which the melting point fell in the range of 238 to 240 °C. In addition, the Ki at serotonin 1A receptor is less than 0.2 nM. Further, on serotonin 2 receptor, the Ki was greater than 20 nM.
Taken in the same sequence, the figures for `CC(C)NC(=O)Cc1ccc2ccn(C3CCN(CCc4ccc(F)cc4)CC3)c2c1` [Example 286, 1-[1-(4-fluorophenethyl)piperidin-4-yl]-6-(N-isopropylcarbamoylmethyl)indole] were 146 to 148 °C, 3.74 nM and 3.12 nM.
